Test results as given in patent US4829076A, “Novel dihydropyridines having calcium antagonistic and antihypertensive activity” (Alkaloida Vegyeszeti Gyar, priority 1986, dated 1989).
Where two headings read alike, the source gives them in different places.

Tests used:
[1] = system: conscious rats with renal hypertension; assay: Antihypertensive effect in rats with renal hypertension ("RH" rats); assay type: in vivo, rat (CFY male); conditions: for Systolic blood pressure, 0 h: 0 h (baseline)
Description: The test was performed according to the method of Grollman [Proc. Soc. Exptl. […] The test compounds were administered orally.

[2] = system: anesthetized, normotensive cats; assay: Hypotensive effect in anesthetized, normotensive cats; assay type: in vivo, cat; conditions: 1 mg/kg id.
Description: A tube was inserted in the trachea of cats anesthetized with ip.35 mg/kg of pentobarbital sodium to ensure spontaneous respiration. The femoral artery and vein were both cannulated unilaterally. The vegetative test compounds (adrenaline, isoproterenol) were administered through the venous cannule. The mean arterial blood pressure was measured by joining the arterial cannule to a Statham P23Db pressure transducer and electromanometer. The heart rate was determined by a cardiotachometer triggered by arterial pulse-wave.
Various doses of the test compounds were administered through a cannule inserted into the duodenum.

[3] = system: conscious rats with DOCA-induced hypertension; assay: Antihypertensive effect in rats with DOCA-induced hypertension ("DH" rats); assay type: in vivo, rat; conditions: for Systolic blood pressure, 0 h: 0 h (baseline)
Description: The test was performed according to Cunning et al. [J. Pharm. Exp. Ther. 161, 88 (1981)].

[4] = system: spontaneously hypertensive conscious rats; assay: Antihypertensive effect in spontaneously hypertensive conscious rats ("SH" rats); assay type: in vivo, rat (Wistar-Okamoto); conditions: for change in vivo at 5 mg/kg / change in vivo at 10 mg/kg: Rattus norvegicus, po
Description: The blood pressure of rats was measured before treatment and hourly after drug administration till the 24th posttreatment hour. The test compounds were administered orally, by gavage.

[5] = target: T1, potential-mediated calcium channel (Rattus norvegicus, UniProt P22002); assay: Calcium-antagonistic effect on an isolated vessel preparation (portal vein); conditions: depolarizing solution (90 mM KCl), CaCl2 2.5 and 5.0 mM, 37° C., pH 7.4, read-out: Inhibition of the potential-mediated calcium channel, IC50
T1 construct: Portal veins were obtained from decapitated male rats; from tissue; host or cells: rat portal vein (longitudinally incised venous segment)
Description: Portal veins were obtained from decapitated male rats weighing 300 to 350 g. The longitudinally incised venous segment was suspended in an organ chamber (10 ml) filled with physiological saline solution under resting tension of 1 g. Its upper end was attached to a HSI force-displacement transducer. Isometric contractions were recorded with a Beckman Dynograph.
After the initial equilibration period in a calcium-free Krebs-Ringer bicarbonate solution (KRB) the vein was exposed to a depolarizing solution (calcium-free KRB containing 90 mM of KCl) for 10 minutes. In order to determine the cumulative contractile responses CaCl2 was added in an end-concentration of 2.5 and 5.0 mM, resp. Each medium was oxygenated with carbogen gas and maintained at 37° C. and pH 7.4.
The influence of the test compounds on the contraction was determined by incubating the veins in the depolarizing solution for 10 minutes before and during exposure to Ca^2+. Each vein preparation was subjected to a single concentration of the test compound.
For each experiment the 100% responses were considered as the maximum contractile responses during the control Ca curves. The contractions after exposure to the test compounds were expressed as the percentage of these values.

[6] = target: T2, 1,4-dihydropyridine receptor; assay: Receptor binding studies (displacement of 3H-nitrendipine, heart microsomal preparation); conditions: displacement of 50% of 3H-nitrendipine
T2 construct: to the heart microsomal preparation; from tissue; host or cells: heart microsomal preparation
T2 sequence (Q13936 whole entry): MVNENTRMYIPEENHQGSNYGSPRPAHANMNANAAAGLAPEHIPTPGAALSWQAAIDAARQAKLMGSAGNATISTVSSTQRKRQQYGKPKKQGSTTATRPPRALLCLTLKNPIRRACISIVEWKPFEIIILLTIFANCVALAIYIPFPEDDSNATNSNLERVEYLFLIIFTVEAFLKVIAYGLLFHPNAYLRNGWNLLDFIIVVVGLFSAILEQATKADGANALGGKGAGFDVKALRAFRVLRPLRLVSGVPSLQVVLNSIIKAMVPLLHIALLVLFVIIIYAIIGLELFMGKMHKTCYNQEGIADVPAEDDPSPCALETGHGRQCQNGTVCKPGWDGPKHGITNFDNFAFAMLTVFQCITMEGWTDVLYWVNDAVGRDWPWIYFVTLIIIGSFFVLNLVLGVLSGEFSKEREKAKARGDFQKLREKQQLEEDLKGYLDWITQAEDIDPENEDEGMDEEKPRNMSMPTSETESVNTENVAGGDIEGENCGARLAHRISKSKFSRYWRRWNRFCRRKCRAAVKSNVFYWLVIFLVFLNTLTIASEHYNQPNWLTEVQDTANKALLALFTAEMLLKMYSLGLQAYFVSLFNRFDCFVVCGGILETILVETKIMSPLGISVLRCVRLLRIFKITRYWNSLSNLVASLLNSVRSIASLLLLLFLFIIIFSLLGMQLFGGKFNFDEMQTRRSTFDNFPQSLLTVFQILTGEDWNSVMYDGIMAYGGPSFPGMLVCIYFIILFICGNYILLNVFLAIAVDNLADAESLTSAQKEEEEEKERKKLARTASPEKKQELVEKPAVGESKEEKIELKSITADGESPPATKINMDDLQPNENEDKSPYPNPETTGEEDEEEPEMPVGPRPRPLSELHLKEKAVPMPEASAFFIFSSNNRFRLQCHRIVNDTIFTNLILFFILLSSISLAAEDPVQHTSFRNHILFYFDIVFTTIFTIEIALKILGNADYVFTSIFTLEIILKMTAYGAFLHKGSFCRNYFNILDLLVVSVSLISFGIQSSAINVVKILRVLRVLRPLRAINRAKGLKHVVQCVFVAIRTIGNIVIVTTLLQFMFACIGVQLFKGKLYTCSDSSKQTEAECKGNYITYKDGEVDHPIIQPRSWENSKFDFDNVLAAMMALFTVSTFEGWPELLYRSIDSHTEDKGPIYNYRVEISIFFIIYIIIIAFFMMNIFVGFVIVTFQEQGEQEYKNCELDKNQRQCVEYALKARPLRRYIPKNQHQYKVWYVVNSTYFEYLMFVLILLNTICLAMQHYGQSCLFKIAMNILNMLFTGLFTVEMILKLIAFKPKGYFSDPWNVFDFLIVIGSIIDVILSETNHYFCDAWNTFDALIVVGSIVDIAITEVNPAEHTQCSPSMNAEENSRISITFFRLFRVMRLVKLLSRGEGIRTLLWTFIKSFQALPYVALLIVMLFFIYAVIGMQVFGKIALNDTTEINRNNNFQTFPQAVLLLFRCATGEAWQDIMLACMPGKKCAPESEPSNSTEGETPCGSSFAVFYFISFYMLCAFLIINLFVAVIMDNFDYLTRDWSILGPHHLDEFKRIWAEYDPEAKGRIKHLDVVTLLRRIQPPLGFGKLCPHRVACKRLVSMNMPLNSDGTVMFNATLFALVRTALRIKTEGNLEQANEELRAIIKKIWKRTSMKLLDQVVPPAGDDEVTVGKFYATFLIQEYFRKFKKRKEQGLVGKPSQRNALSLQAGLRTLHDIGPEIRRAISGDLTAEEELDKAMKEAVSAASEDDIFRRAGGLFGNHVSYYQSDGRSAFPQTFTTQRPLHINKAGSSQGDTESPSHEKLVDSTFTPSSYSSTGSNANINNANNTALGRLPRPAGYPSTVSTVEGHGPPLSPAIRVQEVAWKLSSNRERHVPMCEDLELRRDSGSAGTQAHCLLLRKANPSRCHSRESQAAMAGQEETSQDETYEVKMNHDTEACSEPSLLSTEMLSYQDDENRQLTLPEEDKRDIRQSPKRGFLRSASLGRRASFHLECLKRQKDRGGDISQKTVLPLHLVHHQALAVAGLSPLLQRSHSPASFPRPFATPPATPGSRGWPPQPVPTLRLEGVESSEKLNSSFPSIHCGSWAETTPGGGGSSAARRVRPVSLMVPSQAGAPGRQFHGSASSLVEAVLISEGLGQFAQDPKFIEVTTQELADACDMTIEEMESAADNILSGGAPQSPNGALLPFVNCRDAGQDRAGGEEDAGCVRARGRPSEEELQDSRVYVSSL
T2 sequence (P54289 25-955 partner limits assumed): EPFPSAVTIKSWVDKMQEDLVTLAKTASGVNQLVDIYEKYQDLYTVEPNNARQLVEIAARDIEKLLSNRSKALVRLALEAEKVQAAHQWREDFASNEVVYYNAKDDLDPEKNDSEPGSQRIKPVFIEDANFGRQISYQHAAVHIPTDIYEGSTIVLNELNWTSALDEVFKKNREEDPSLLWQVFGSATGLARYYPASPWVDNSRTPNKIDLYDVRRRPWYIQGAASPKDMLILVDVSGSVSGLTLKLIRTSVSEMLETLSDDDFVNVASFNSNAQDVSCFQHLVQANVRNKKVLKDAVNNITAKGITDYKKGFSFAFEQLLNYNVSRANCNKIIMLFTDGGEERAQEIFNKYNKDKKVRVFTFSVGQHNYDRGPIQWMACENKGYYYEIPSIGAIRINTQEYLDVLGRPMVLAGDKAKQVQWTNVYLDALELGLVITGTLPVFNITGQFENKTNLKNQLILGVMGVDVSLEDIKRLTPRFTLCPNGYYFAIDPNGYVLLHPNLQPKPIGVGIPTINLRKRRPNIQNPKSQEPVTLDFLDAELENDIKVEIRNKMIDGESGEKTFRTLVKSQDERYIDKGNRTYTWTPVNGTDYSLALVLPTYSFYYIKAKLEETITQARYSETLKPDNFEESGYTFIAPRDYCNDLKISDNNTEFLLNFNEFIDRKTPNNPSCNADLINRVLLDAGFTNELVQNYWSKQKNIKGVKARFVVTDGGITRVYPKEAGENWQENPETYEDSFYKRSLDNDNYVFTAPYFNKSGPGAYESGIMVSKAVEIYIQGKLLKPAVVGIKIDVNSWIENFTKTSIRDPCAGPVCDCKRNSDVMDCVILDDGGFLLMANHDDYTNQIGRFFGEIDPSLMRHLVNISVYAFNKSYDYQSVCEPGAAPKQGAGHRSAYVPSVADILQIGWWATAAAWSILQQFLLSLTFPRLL
T2 sequence (P54289 956-1103 partner limits assumed): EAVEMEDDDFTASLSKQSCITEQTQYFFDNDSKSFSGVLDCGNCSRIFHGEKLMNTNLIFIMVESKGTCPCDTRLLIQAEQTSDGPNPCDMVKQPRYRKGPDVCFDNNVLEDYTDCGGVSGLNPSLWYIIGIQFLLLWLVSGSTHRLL
T2 sequence (Q08289 whole entry partner): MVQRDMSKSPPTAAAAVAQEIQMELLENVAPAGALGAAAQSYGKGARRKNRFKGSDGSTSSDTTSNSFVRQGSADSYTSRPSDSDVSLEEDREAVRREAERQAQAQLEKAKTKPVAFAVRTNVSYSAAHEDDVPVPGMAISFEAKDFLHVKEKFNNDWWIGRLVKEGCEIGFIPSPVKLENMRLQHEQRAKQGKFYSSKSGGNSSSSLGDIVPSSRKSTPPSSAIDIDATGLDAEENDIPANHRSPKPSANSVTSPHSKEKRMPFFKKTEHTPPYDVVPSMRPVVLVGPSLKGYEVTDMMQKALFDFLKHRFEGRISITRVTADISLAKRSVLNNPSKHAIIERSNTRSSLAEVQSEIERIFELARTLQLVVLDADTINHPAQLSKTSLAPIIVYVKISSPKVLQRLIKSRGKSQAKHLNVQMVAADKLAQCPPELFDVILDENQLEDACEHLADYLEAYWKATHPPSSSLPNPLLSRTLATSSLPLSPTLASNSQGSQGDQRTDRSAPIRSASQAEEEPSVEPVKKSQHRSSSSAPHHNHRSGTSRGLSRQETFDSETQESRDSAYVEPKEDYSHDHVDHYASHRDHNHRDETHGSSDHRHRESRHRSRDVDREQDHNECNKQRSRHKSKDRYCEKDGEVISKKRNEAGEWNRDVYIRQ

[7] = system: PGF2alpha induced uterus contractions (isolated rat uterus); assay: In vitro uterus relaxant activity in the isolated rat uterus (inhibition of PGF2alpha induced contraction); conditions: 10^-6 M test compound
Description: The test was performed according to the method of Gaddum and Hammeed [Brit. […] The inhibitory activity of 10^-6 M doses of the test compounds on the PGF2alpha induced uterus contractions was determined.

[8] = 10 mg/kg p.o., 2 h, read-out: Systolic blood pressure reduction in %, 2 h
[9] = 10 mg/kg p.o., 5 h, read-out: Systolic blood pressure reduction in %, 5 h
[10] = 10 mg/kg p.o., 24 h, read-out: Systolic blood pressure reduction in %, 24 h

COC(=O)C1=C(C)NC(C)=C(C(=O)OC)C1c1ccccc1NC(=O)c1ccc([N+](=O)[O-])cc1 [Example 7]
Systolic blood pressure, 0 h ([1]; 5 mg/kg p.o.): 206.6 Hgmm | Pressure reduction in %, 2 h ([1]; 5 mg/kg p.o.): -15% | Systolic blood pressure, 2 h ([1]; 5 mg/kg p.o.): 177.7 Hgmm | Pressure reduction in %, 5 h ([1]; 5 mg/kg p.o.): -13% | Systolic blood pressure, 5 h ([1]; 5 mg/kg p.o.): 188.6 Hgmm | Pressure reduction in %, 24 h ([1]; 5 mg/kg p.o.): +3% | Systolic blood pressure, 24 h ([1]; 5 mg/kg p.o.): 213.3 Hgmm | Systolic blood pressure, 0 h ([1]; 10 mg/kg p.o.): 198.8 Hgmm | Pressure reduction in %, 2 h ([1]; 10 mg/kg p.o.): -31% | Systolic blood pressure, 2 h ([1]; 10 mg/kg p.o.): 138.8 Hgmm | Pressure reduction in %, 5 h ([1]; 10 mg/kg p.o.): -25% | Systolic blood pressure, 5 h ([1]; 10 mg/kg p.o.): 150.0 Hgmm | Pressure reduction in %, 24 h ([1]; 10 mg/kg p.o.): +6% | Systolic blood pressure, 24 h ([1]; 10 mg/kg p.o.): 212.2 Hgmm | Mean arterial pressure, 5 min [2]: 115 Hgmm | Mean arterial pressure, 15 min [2]: 60 Hgmm | Mean arterial pressure, 30 min [2]: 50 Hgmm | Mean arterial pressure, 60 min [2]: 60 Hgmm | Mean arterial pressure, 120 min [2]: 85 Hgmm | Systolic blood pressure, 0 h ([3]; 5 mg/kg p.o.): 176.8 Hgmm | Pressure reduction in %, 2 h ([3]; 5 mg/kg p.o.): -24% | Systolic blood pressure, 2 h ([3]; 5 mg/kg p.o.): 135.7 Hgmm | Pressure reduction in %, 5 h ([3]; 5 mg/kg p.o.): -16% | Systolic blood pressure, 5 h ([3]; 5 mg/kg p.o.): 149.4 Hgmm | Pressure reduction in %, 24 h ([3]; 5 mg/kg p.o.): +2% | Systolic blood pressure, 24 h ([3]; 5 mg/kg p.o.): 180.8 Hgmm | Systolic blood pressure, 0 h ([3]; 10 mg/kg p.o.): 176.2 Hgmm | Pressure reduction in %, 2 h ([3]; 10 mg/kg p.o.): -28% | Systolic blood pressure, 2 h ([3]; 10 mg/kg p.o.): 126.7 Hgmm | Pressure reduction in %, 5 h ([3]; 10 mg/kg p.o.): -17% | Systolic blood pressure, 5 h ([3]; 10 mg/kg p.o.): 147.5 Hgmm | Pressure reduction in %, 24 h ([3]; 10 mg/kg p.o.): 0% | Systolic blood pressure, 24 h ([3]; 10 mg/kg p.o.): 177.5 Hgmm | Systolic blood pressure, 2 h ([4]; 5 mg/kg p.o., 2 h): 175.2 Hgmm | Systolic blood pressure, 5 h ([4]; 5 mg/kg p.o., 5 h): 157.6 Hgmm | Systolic blood pressure, 24 h ([4]; 5 mg/kg p.o., 24 h): 217.6 Hgmm | Systolic blood pressure, 2 h ([4]; 10 mg/kg p.o., 2 h): 164.0 Hgmm | Systolic blood pressure, 5 h ([4]; 10 mg/kg p.o., 5 h): 164.0 Hgmm | Systolic blood pressure, 24 h ([4]; 10 mg/kg p.o., 24 h): 230.0 Hgmm | change in vivo at 5 mg/kg ([4]; 5 mg/kg p.o., 2 h, read-out: Systolic blood pressure reduction in %, 2 h): -15% | change in vivo at 5 mg/kg ([4]; 5 mg/kg p.o., 5 h, read-out: Systolic blood pressure reduction in %, 5 h): -24% | change in vivo at 5 mg/kg ([4]; 5 mg/kg p.o., 24 h, read-out: Systolic blood pressure reduction in %, 24 h): 5% | change in vivo at 10 mg/kg [4, 8]: -28% | change in vivo at 10 mg/kg [4, 9]: -28% | change in vivo at 10 mg/kg [4, 10]: 1% | IC50 [5]: 0.5 nM | IC50 [6]: 6.3 ± 0.05 nM

COC(=O)C1=C(C)NC(C)=C(C(=O)OC)C1c1ccccc1NC(=O)C(F)(F)F [Example 34, 2,6-Dimethyl-3,5-bis(methoxycarbonyl)-4-(2-trifluoro-acetamidophenyl)-1,4-dihydropyridine]
Systolic blood pressure, 0 h ([1]; 10 mg/kg p.o.): 198.0 Hgmm | Pressure reduction in %, 2 h ([1]; 10 mg/kg p.o.): -28% | Systolic blood pressure, 2 h ([1]; 10 mg/kg p.o.): 141.0 Hgmm | Pressure reduction in %, 5 h ([1]; 10 mg/kg p.o.): -14% | Systolic blood pressure, 5 h ([1]; 10 mg/kg p.o.): 167.0 Hgmm | Pressure reduction in %, 24 h ([1]; 10 mg/kg p.o.): 0% | Systolic blood pressure, 24 h ([1]; 10 mg/kg p.o.): 199.0 Hgmm | Mean arterial pressure, 5 min [2]: 90 Hgmm | Mean arterial pressure, 15 min [2]: 60 Hgmm | Mean arterial pressure, 30 min [2]: 75 Hgmm | Mean arterial pressure, 60 min [2]: 90 Hgmm | Mean arterial pressure, 120 min [2]: 105 Hgmm | Systolic blood pressure, 0 h ([3]; 5 mg/kg p.o.): 192.0 Hgmm | Pressure reduction in %, 2 h ([3]; 5 mg/kg p.o.): -22% | Systolic blood pressure, 2 h ([3]; 5 mg/kg p.o.): 150.0 Hgmm | Pressure reduction in %, 5 h ([3]; 5 mg/kg p.o.): -16% | Systolic blood pressure, 5 h ([3]; 5 mg/kg p.o.): 163.0 Hgmm | Pressure reduction in %, 24 h ([3]; 5 mg/kg p.o.): 0% | Systolic blood pressure, 24 h ([3]; 5 mg/kg p.o.): 193.0 Hgmm | Systolic blood pressure, 0 h ([3]; 10 mg/kg p.o.): 189.0 Hgmm | Pressure reduction in %, 2 h ([3]; 10 mg/kg p.o.): -23% | Systolic blood pressure, 2 h ([3]; 10 mg/kg p.o.): 146.0 Hgmm | Pressure reduction in %, 5 h ([3]; 10 mg/kg p.o.): -30% | Systolic blood pressure, 5 h ([3]; 10 mg/kg p.o.): 134.0 Hgmm | Pressure reduction in %, 24 h ([3]; 10 mg/kg p.o.): -2% | Systolic blood pressure, 24 h ([3]; 10 mg/kg p.o.): 186.0 Hgmm | Systolic blood pressure, 2 h ([4]; 10 mg/kg p.o., 2 h): 170.0 Hgmm | Systolic blood pressure, 5 h ([4]; 10 mg/kg p.o., 5 h): 182.0 Hgmm | Systolic blood pressure, 24 h ([4]; 10 mg/kg p.o., 24 h): 216.0 Hgmm | change in vivo at 10 mg/kg [4, 8]: -25% | change in vivo at 10 mg/kg [4, 9]: -19% | change in vivo at 10 mg/kg [4, 10]: -4% | Inhibition of PGF2alpha induced contraction [7]: 98.0% | IC50 [5]: 2.5 nM | IC50 [6]: 16 ± 1.6 nM
